Laboratory results published in ChEMBL document CHEMBL4145686, “Discovery of a Potent and Selective Steroidal Glucocorticoid Receptor Antagonist (ORIC-101)” (J Med Chem, 2018).
The source made the active and inactive calls. No cut-off for these calls is given here.

Key:
[1] = Half life in rat at 0.5 mg/kg, iv; format: ADME, organism-based; settings: in vivo
androgen receptor (AR) = molecular target: T1, androgen receptor (AR) (Homo sapiens, UniProt P10275); test: Agonist activity at AR (unknown origin) expressed in human LNCaP cells incubated for 20 hrs by luciferase reporter gene assay relative to mifepristone; format: cell-based; settings: human LNCaP cells expressing AR
T1 sequence (P10275 whole entry): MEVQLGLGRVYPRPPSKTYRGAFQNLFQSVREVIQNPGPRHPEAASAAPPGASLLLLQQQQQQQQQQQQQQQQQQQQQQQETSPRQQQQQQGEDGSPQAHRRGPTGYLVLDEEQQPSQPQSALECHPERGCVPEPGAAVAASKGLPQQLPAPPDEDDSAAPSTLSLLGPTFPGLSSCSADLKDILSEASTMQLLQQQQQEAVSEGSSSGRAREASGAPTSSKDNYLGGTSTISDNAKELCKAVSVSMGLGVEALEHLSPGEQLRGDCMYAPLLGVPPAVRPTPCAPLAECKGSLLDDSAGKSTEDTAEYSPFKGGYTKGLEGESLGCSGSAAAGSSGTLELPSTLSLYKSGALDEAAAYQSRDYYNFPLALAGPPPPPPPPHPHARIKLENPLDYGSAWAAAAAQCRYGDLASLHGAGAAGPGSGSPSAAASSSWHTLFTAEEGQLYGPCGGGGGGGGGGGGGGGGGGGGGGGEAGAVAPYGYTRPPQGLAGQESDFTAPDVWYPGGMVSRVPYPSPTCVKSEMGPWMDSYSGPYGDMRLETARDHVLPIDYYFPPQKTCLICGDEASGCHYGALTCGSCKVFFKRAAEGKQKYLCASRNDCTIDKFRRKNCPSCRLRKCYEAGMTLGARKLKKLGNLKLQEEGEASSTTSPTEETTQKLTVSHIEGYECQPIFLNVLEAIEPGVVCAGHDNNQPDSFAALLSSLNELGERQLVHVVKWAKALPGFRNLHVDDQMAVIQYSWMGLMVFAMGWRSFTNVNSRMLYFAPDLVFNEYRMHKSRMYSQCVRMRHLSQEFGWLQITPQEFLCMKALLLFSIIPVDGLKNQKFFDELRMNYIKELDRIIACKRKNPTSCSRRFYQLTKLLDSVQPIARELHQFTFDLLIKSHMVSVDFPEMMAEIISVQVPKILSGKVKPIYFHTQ

Androgen receptor = molecular target: T2, Androgen receptor (Homo sapiens, UniProt P10275); test: Agonist activity at AR (unknown origin) expressed in human LNCaP cells incubated for 20 hrs by luciferase reporter gene assay; format: cell-based
T2 sequence (P10275 whole entry): T1 sequence (P10275 whole entry)

Glucocorticoid receptor [2] = molecular target: T3, Glucocorticoid receptor (Homo sapiens, UniProt P04150); test: Agonist activity at human GR expressed in CHO-K1 cells incubated for 20 hrs by luciferase reporter gene assay; format: cell-based
T3 sequence (P04150 whole entry): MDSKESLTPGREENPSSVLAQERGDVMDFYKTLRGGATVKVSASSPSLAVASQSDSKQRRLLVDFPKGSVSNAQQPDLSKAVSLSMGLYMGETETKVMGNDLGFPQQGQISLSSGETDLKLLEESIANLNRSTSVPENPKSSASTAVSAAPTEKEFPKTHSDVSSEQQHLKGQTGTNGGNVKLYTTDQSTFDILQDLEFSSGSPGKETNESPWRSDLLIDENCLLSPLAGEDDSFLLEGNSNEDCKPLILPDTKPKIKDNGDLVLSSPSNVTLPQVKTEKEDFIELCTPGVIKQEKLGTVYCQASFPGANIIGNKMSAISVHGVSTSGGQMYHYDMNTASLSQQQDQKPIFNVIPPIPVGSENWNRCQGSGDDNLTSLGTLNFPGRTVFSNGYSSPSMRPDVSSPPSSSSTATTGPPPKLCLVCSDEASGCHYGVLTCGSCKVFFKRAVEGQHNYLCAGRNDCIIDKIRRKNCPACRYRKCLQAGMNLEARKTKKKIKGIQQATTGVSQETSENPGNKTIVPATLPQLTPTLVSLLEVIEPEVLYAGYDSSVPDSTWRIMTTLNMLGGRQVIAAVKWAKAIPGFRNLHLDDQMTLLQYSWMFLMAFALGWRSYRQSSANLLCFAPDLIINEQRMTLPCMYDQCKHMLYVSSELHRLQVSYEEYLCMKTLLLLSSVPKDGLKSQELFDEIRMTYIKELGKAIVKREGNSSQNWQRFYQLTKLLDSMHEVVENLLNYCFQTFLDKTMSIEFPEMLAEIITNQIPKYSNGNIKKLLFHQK

[3] = molecular target: T4, glucocorticoid receptor (GR) (Homo sapiens, UniProt P04150); test: Agonist activity at human GR expressed in CHO-K1 cells incubated for 20 hrs by luciferase reporter gene assay relative to dexamethasone; format: cell-based; settings: CHO-K1 cells expressing human GR
T4 sequence (P04150 whole entry): T3 sequence (P04150 whole entry)

[4] = Cmax in rat at 5 mg/kg, po; format: ADME, organism-based; design: dose 5 mg/kg, route oral; settings: in vivo
Cytochrome P450 2C9 = Cytochrome P450 2C9 (Homo sapiens, UniProt P11712); test: Inhibition of CYP2C9 (unknown origin) using […] as substrate; format: ADME
[5] = Oral bioavailability in rat at 5 mg/kg; format: ADME, organism-based; settings: in vivo
Cytochrome P450 3A4 = Cytochrome P450 3A4 (Homo sapiens, UniProt P08684); test: Inhibition of CYP3A4 (unknown origin) using midazolam as substrate; format: ADME
[6] = Clearance in rat at 0.5 mg/kg, iv; format: ADME, organism-based; settings: in vivo
Glucocorticoid receptor [7] = molecular target: T3, Glucocorticoid receptor; test: Antagonist activity at human GR expressed in CHO-K1 cells assessed as reduction in dexamethasone-induced response incubated for 20 hrs by luciferase reporter gene assay; format: cell-based
Cytochrome P450 2C8 = molecular target: T5, Cytochrome P450 2C8 (Homo sapiens, UniProt P10632); test: Inhibition of CYP2C8 (unknown origin) using […] as substrate; format: ADME
T5 sequence (P10632 whole entry): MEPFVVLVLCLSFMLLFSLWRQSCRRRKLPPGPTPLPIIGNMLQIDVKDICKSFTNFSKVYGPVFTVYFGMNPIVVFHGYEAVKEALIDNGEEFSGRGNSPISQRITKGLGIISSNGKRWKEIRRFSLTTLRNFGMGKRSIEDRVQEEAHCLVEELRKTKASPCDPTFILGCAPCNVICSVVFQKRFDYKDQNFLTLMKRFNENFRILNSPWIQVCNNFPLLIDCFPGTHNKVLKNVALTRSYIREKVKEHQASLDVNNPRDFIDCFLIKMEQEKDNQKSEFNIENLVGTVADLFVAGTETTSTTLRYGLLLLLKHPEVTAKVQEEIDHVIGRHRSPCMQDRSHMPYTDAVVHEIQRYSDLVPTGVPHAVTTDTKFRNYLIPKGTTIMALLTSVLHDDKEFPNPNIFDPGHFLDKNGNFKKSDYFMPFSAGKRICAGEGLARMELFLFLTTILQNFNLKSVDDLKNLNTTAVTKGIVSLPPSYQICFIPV

[8] = AUC in rat at 5 mg/kg, po; format: ADME, organism-based; settings: in vivo
[9] = Volume of distribution at steady state in rat at 0.5 mg/kg, iv; format: ADME, organism-based; settings: in vivo, read-out: Vdss
OVCAR-5 = settings: Homo sapiens, 100 mg/kg

Sequence of Cytochrome P450 2C9 (P11712 whole entry): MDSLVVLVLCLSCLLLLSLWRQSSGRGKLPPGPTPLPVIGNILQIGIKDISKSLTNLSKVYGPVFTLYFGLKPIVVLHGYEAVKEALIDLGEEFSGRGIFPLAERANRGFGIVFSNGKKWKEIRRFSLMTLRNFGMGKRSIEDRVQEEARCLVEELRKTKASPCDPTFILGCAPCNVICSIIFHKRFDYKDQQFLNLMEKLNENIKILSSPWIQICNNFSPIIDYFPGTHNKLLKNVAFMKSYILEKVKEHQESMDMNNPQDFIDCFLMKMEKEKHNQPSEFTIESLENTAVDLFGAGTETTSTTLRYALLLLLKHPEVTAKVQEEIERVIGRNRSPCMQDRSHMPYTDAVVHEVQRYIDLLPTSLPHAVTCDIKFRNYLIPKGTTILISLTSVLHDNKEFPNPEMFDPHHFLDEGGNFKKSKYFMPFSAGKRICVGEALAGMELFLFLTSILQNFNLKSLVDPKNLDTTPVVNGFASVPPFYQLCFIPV
Sequence of Cytochrome P450 3A4 (P08684 whole entry): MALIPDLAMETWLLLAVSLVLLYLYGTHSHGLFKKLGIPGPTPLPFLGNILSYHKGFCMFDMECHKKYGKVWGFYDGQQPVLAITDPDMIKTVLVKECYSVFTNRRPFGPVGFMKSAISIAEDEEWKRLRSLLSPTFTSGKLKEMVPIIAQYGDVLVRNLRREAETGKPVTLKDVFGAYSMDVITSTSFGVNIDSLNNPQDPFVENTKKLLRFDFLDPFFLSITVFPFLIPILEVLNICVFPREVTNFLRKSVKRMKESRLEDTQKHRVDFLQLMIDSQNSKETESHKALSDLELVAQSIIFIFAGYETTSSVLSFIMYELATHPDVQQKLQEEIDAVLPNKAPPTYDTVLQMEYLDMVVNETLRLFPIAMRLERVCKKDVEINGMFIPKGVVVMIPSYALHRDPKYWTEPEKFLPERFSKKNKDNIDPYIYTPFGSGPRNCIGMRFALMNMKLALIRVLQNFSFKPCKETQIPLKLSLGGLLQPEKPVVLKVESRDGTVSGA

CN(C)c1ccc([C@H]2C[C@@]3(C)[C@@H](CC[C@@]3(O)C#CC(C)(C)C)[C@@H]3CCC4=CC(=O)CCC4=C32)cc1
half-life [1]: 1.9 h | Emax at 20 h (androgen receptor (AR)): 13.4% | EC50 (Androgen receptor): > 2500 nM | EC50 (Glucocorticoid receptor [2]): > 2500 nM | Emax at 20 h [3]: 1.4% | Cmax [4]: 72 ng/mL | IC50 (Cytochrome P450 2C9): > 10000 nM | bioavailability [5]: 37% | IC50 (Cytochrome P450 3A4): 2900 nM | clearance [6]: 66.7 mL/min/kg | IC50 (Glucocorticoid receptor [7]): 14.6 nM | IC50 (Cytochrome P450 2C8): > 10000 nM | AUC [8]: 471 ng·h/mL | Vd [9]: 4.9 L/kg

Nc1ccn([C@@H]2O[C@H](CO)[C@@H](O)C2(F)F)c(=O)n1
TGI (OVCAR-5): Active

CC(C)N(C)c1ccc([C@H]2C[C@@]3(C)[C@@H](CC[C@@]3(O)C#CC(C)(C)C)[C@@H]3CCC4=CC(=O)CCC4=C32)cc1
half-life [1]: 1.5 h | Emax at 20 h (androgen receptor (AR)): 8.2% | EC50 (Androgen receptor): > 2500 nM | EC50 (Glucocorticoid receptor [2]): > 2500 nM | Emax at 20 h [3]: 1.7% | Cmax [4]: 59 ng/mL | bioavailability [5]: 23% | clearance [6]: 66.7 mL/min/kg | IC50 (Glucocorticoid receptor [7]): 43 nM | AUC [8]: 290 ng·h/mL | Vd [9]: 4.7 L/kg
